Measurements reported in patent publication US4797399A, “Piperazine compounds and antithrombotic pharmaceutical composition comprising the same” (Fujisawa Pharmaceutical Co., Ltd., priority 1986, dated 1989).
Read-outs that look alike come from different tables or passages of the source.

Experiments:
[1] = tested on: platelet aggregation (ADP); experiment: Platelet aggregation in vitro, ADP-induced (rabbit platelet rich plasma); assay type: cell-based; settings: Oryctolagus cuniculus
Method: (§1) Platelet rich plasma (PRP) which contains 6-7×10^8 platelets/ml was prepared from rabbit blood. To the 200 μl of PRP, 5 μl of calcium chloride (1 mM) and 50 μl of 25 mM Tris-acetate solution (pH 7.4) containing 120 mM NaCl or test compound were added successively, and then stirred for 2 min. at 37° C. […] Aggregation was measured by using an aggregometer. (NKK HEMA-TRACER 1).

[2] = tested on: platelet aggregation (collagen); experiment: Platelet aggregation in vitro, collagen-induced (rabbit platelet rich plasma); assay type: cell-based; settings: Oryctolagus cuniculus
Method: as §1

systemic anaphylaxis = experiment: Systemic anaphylaxis (passive sensitization with rabbit anti-ovalbumin serum, ovalbumin aerosol); assay type: in vivo, Hartley guinea pigs; settings: 30 min before antigen aerosol
Method: Male Hartley guinea pigs (300-400 g, n=5) were passively sensitized with i.v. injection of rabbit anti-ovalbumin serum. 24 Hours later, test compound was administered orally. 30 Min. after administration of test compound, sensitized animals were placed for 2 min. in a chamber filled with antigen aerosol (ovalbumin) by a conventional nebulizer. Survived animals were regarded as being protected from systemic anaphylaxis.

[3] = tested on: acetic acid-induced writhing; experiment: Acetic acid-induced writhing syndrome; assay type: in vivo, Scl:ddy strain mice; settings: 32 mg/kg oral, 60 min before 0.6% acetic acid i.p., 3-13 min count; * P < 0.01
Method: Male Scl:ddy strain mice aged 6 weeks were used in groups of 10. The test compound was suspended in methylcellulose and administered orally. After 60 min., 20 ml/kg of 0.6% acetic acid solution was administered i.p. and writhing episodes between 3 and 13 min. after acetic acid injection were counted. The data was analyzed statistically by student's t-test.

[4] = tested on: platelet aggregation (collagen); experiment: Platelet aggregation ex vivo, collagen-induced, after oral administration to rats; assay type: in vivo, Sprague-Dawley rats; settings: 1 hour after dosing, collagen 5.0 μg/ml
Method: Male Sprague-Dawley rats weighing about 250 g were used after overnight fasting. One hour after oral administration of test compound or vehicle of test compound (control), blood was collected into a tube containing 0.1 vol. of 3.8% sodium citrate. To the 0.45 ml of blood, 0.05 ml of collagen (final concentration 5.0 μg/ml) was added and then incubated for 5 min. at 37° C. under shaking.
The reaction was terminated by addition of 1 ml of 10 mM phosphate buffered saline (pH 7.4) containing 11.5 mM EDTA and 1% formalin. The reaction mixture was centrifuged at 70×g for 5 min. and platelet count of upper phase was measured by Technicon Auto Analizer.
Platelet aggregation was calculated according to the following formula: [formula] A. Platelet count after addition of vehicle of collagen B. Platelet count after addition of collagen
Inhibition of the test compound was calculated according to the following formula; [formula] C. Platelet aggregation (%) of control D. Platelet aggregation (%) of Test compound

carrageenin foot edema = experiment: Carrageenin foot edema; assay type: in vivo, Sprague-Dawley rats; settings: 320 mg/kg oral, 60 min before phlogogen, edema at 3 hours; * P < 0.05
Method: Male Sprague-Dawley rats weighing about 180 g were used in groups of five. Paw edema was induced by subplantar injection of 1% carrageenin (0.1 ml/rat) into the right hind paw in carrageenin foot edema. The test compound was suspended in methylcellulose and administered orally 60 minutes before phlogogen. Paw volume was measured with plethysmometer (Ugo Basil Co., Ltd.) by water displacement immersing the paw to the lateral malleolus. The difference of paw volume before and 3 hours after the phlogogen was designated as edema volume. The data analyzed statistically by student's t-test.

SMILES | IC50 ([1]; pH 7.4, read-out: ID50 ADP (dose required to inhibit platelet aggregation by 50%)) [µM] | IC50 ([2]; pH 7.4, read-out: ID50 Collagen (dose required to inhibit platelet aggregation by 50%)) [µM] | Survival (%) (systemic anaphylaxis; 10 mg/kg oral) | Survival (%) (systemic anaphylaxis; 100 mg/kg oral) | IC50 ([1]; inducer ADP (2.5 μM), rabbit PRP, pH 7.4, 37° C, read-out: ID50 ADP (dose required to inhibit platelet aggregation by 50%)) [µM] | IC50 ([2]; inducer collagen (2.5 μg/ml), rabbit PRP, pH 7.4, 37° C, read-out: ID50 Collagen (dose required to inhibit platelet aggregation by 50%)) [µM] | Inhibition (%) of acetic acid-induced writhing [3] [%] | Inhibition (%) of platelet aggregation ex vivo ([4]; 10 mg/kg oral) [%] | Inhibition (%) of platelet aggregation ex vivo ([4]; 32 mg/kg oral) [%] | Inhibition (%) of platelet aggregation ex vivo ([4]; 100 mg/kg oral) [%] | Inhibition (%) of carrageenin foot edema (carrageenin foot edema) [%]
CC(=O)Oc1ccccc1C(=O)O [Aspirin, reference compound] | 3200 | 31 |  |  |  |  |  |  |  |  | 
Cl.NN1CCN(C(=O)Cn2c(=O)sc3ccc(Cl)cc32)CC1 [Example 5, 5-chloro-3-[(4-amino-1-piperazinyl)carbonylmethyl]-2-benzothiazolinone hydrochloride] |  |  | 20 | 100 | 14 | 14 | 32.8 | 2 | 67 | 100 | 40.0
